Source: patent US20250129048A1, “MELANOCORTIN 4 RECEPTOR ANTAGONISTS AND USES THEREOF” (Pfizer Inc., priority 2021, published 2025)

Target: hMC4R (Homo sapiens (Human), UniProt P32245)
Test: In vitro binding affinity assay using hMC4R (radioligand competition binding, CHO cell membranes)
Conditions: competition with [125I]-(Nle4, D-Phe7)-α-MSH 0.5 nM; Ki from IC50 by Cheng-Prusoff; read-out: Ki (nM) geometric mean
Procedure: The binding affinity of test compounds at the α-melanocyte-stimulating hormone receptor (hMC4R) was assessed using a radioligand competition binding assay. Recombinant Chinese hamster ovaries (CHO) cells stably expressing hMC4R (PerkinElmer #ES-191-C) were used for competitive binding. hMC4R membranes were grown in Dulbecco's Modified Essential Medium and Ham's F-12 Medium (DMEM/F12), 10% heat inactivated fetal bovine serum (FBS), 0.4 mg/mL Geneticin and 2 mM L-glutamine. Cell membranes were bulked and frozen until the assay was performed.
Compounds were solubilized in 100% dimethyl sulfoxide (DMSO) to a concentration of 30 mM. A 10-point intermediate dilution series using half log dilutions was created in 100% DMSO with a top concentration of 0.03 mM. The serially diluted compounds were spotted as 1 μL/well, in 96-well Costar 3363 plates. The final compound range in the assay was 300 nM to 0.01 nM with a final DMSO concentration of 1%. Control wells, containing 1 μL of 2 mM ([…]) alpha-melanocyte stimulating hormone (α-MSH-Tocris #2584) was added to the non-specific binding wells and 1 μL 100% DMSO for the total binding control wells. This was followed by the addition of 80 μL of assay buffer [25 mM HEPES, 5 mM MgCl2, 2.5 mM CaCl2, 150 mM NaCl, Complete EDTA-free Protease Inhibitor Tablet (Thermo Scientific #11873580001) and 0.25% BSA]. […] The exact concentration of radioligand used for each experiment was determined by liquid scintillation counting and adjusted if necessary.
Frozen hMC4R cell membranes were thawed and Dounce homogenized. Homogenates were resuspended in assay buffer to a concentration of 2 μg per well. […] The plates were incubated for 2 hours at room temperature. Assay samples were then rapidly filtered through Unifilter-96 GF/B PEI coated filter plates using a filter plate harvester (PerkinElmer) and rinsed with ice-cold wash buffer [25 mM (4-(2-hydroxyethyl)-1-piperazineethanesulfonic acid (HEPES), 1 mM MgCl2, 2.5 mM CaCl2, and 500 mM NaCl]. Filter plates were dried overnight at room temperature. Plates were then bottom-sealed prior to the addition of 50 μL/well Ultima Gold XR scintillation fluid (PerkinElmer 6013111). Plates were then top-sealed, incubated for 60 minutes at room temperature and then the amount of radioactivity present was determined by liquid scintillation counting on a Microbeta Trilux (PerkinElmer #2450-0060).
The raw data (expressed as counts per minute) were analyzed using ActivityBase (IDBS Data Management Software). […] Equilibrium dissociation constant for inhibitor of ligand and receptor interaction (Ki) values were then calculated from the IC50 values using the Cheng-Prusoff equation: Ki=IC50/(1+([L]/Kd)), where [L] is the concentration of the radioligand used in the experiment and Kd is the affinity of the radioligand (determined in separate saturation experiments).

hMC4R, sequence (P32245 whole entry): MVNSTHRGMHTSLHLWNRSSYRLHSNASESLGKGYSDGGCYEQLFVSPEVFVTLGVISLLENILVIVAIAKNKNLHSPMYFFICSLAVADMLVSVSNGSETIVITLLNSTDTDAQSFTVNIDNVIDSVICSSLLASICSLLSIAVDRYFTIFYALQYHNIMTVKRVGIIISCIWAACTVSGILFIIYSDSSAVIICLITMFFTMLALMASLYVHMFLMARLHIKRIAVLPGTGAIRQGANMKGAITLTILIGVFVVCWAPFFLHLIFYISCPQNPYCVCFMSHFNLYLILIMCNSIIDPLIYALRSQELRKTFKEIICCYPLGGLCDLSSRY

| Structure (SMILES) | Ki [nM] |
| --- | --- |
| COc1cccc([C@@H](C)C(=O)N2CC[C@H](Nc3ccc(-c4cn(C)c(C(C)(F)F)n4)c(C)n3)C2)c1 (single isomer, unassigned) [Example 14A] | 530 |
| COc1cc([C@@H](C)C(=O)N2CC[C@H](Nc3ccc(-c4cn(C)c(C(C)(F)F)n4)c(C)n3)C2)c(C)cn1 (single isomer, unassigned) [Example 16A] | > 220 |
| Cc1nc(N[C@H]2CCN(C(=O)C3(c4ccccc4)CC3(F)F)C2)ccc1-c1cn(C)cn1 (stereo partly drawn) [Example 35, (2,2-difluoro-1-phenylcyclopropyl)[(3S)-3-{[6-methyl-5-(1-methyl-1H-imidazol-4-yl)pyridin-2-yl]amino}pyrrolidin-1-yl]methanone] | 0.95 |
| Cc1nc(N[C@@H]2CCN(C(=O)Cc3ccc(F)cc3)C2(C)C)ccc1-c1cn(C)cn1 [Example 3A, 1-[(3R)-2,2-dimethyl-3-{[6-methyl-5-(1-methyl-1H-imidazol-4-yl)pyridin-2-yl]amino}pyrrolidin-1-yl]-2-(4-fluorophenyl)ethan-1-one] | 520 |
| Cc1nc(N[C@H]2CCN(C(=O)[C@H](C)c3ccccc3)C2)ccc1-c1cn(C)c(C(F)F)n1 [Example 11, (2R)-1-[(3S)-3-({5-[2-(difluoromethyl)-1-methyl-1H-imidazol-4-yl]-6-methylpyridin-2-yl}amino)pyrrolidin-1-yl]-2-phenylpropan-1-one] | 1.1 |
| Cc1ccccc1[C@@H](C)C(=O)N1CC[C@H](Nc2ccc(-c3cn(C)c(C(C)(F)F)n3)c(C)n2)C1 (single isomer, unassigned) [Example 15B] | 0.83 |
| Cc1nc(N[C@H]2CCN(C(=O)Cc3ccc(F)cc3)C2)ccc1-c1cc(C)n(C)n1 [Example 32, 1-[(3S)-3-{[5-(1,5-dimethyl-1H-pyrazol-3-yl)-6-methylpyridin-2-yl]amino}pyrrolidin-1-yl]-2-(4-fluorophenyl)ethan-1-one] | 5.5 |
| COc1cc([C@@H](C)C(=O)N2CC[C@H](Nc3ccc(-c4nc(C(F)(F)F)n(C)n4)c(C)n3)C2)c(Cl)cn1 (single isomer, unassigned) [Example 25A] | 88 |
| COc1cc([C@](C)(F)C(=O)N2CC[C@H](Nc3ccc(-c4cn(C)c(C(F)F)n4)c(C)n3)C2)ccn1 (single isomer, unassigned) [Example 36B] | 4.3 |
| COc1cc([C@@H](C)C(=O)N2CC[C@H](Nc3ccc(-c4nc(C(F)F)n(C)n4)c(C)n3)C2)ccn1 (single isomer, unassigned) [Example 33A] | 1100 |
| COc1cc(OC(F)F)cc([C@@H](C)C(=O)N2CC[C@H](Nc3ccc(-c4nc(C(C)(F)F)n(C)n4)c(C)n3)C2)c1 (single isomer, unassigned) [Example 40A] | 54 |
| COc1cc([C@@H](C)C(=O)N2CC[C@H](Nc3ccc(-c4cn(C)c(C(C)(F)F)n4)c(C)n3)C2)c(F)cn1 (single isomer, unassigned) [Example 21A] | 190 |
| Cc1nc(N[C@H]2CCN(C(=O)Cc3ccc(F)cc3)C2)ccc1-c1noc(C(F)(F)F)n1 [Example 27, 2-(4-fluorophenyl)-1-[(3S)-3-({6-methyl-5-[5-(trifluoromethyl)-1,2,4-oxadiazol-3-yl]pyridin-2-yl}amino)pyrrolidin-1-yl]ethan-1-one] | 950 |
| Cc1nc(N[C@H]2CCN(C(=O)Cc3ccc(F)c(F)c3)C2)ccc1-c1cn(C)c(C(F)F)n1 [Example 10, 1-[(3S)-3-({5-[2-(difluoromethyl)-1-methyl-1H-imidazol-4-yl]-6-methylpyridin-2-yl}amino)pyrrolidin-1-yl]-2-(3,4-difluorophenyl)ethan-1-one] | 0.31 |
| Cc1nc(N[C@H]2CCN(C(=O)Cc3ccc(OC(F)(F)F)cc3)C2)ccc1-c1cn(C)c(C(F)F)n1 [Example 9, 1-[(3S)-3-({5-[2-(difluoromethyl)-1-methyl-1H-imidazol-4-yl]-6-methylpyridin-2-yl}amino)pyrrolidin-1-yl]-2-[4-(trifluoromethoxy)phenyl]ethan-1-one] | 0.46 |
| Cc1nc(N[C@H]2CCN(C(=O)C(F)(F)c3ccc(Cl)c(Cl)c3)C2)ccc1-c1cn(C)c(C(F)F)n1 [Example 34, 2-(3,4-dichlorophenyl)-1-[(3S)-3-({5-[2-(difluoromethyl)-1-methyl-1H-imidazol-4-yl]-6-methylpyridin-2-yl}amino)pyrrolidin-1-yl]-2,2-difluoroethan-1-one] | 0.88 |
| Cc1ccccc1[C@@H](C)C(=O)N1CC[C@H](Nc2ccc(-c3cn(C)c(C(C)(F)F)n3)c(C)n2)C1 (single isomer, unassigned) [Example 15A] | 150 |
| COc1ccc(C)c([C@@H](C)C(=O)N2CC[C@H](Nc3ccc(-c4cn(C)cn4)c(C)n3)C2)c1 (single isomer, unassigned) [Example 20A] | 1100 |
| COc1cc([C@@H](C)C(=O)N2CC[C@H](Nc3ccc(-c4cn(C)c(C(F)F)n4)c(C)n3)C2)cc(OC)n1 (single isomer, unassigned) [Example 12B] | 7.7 |
| COc1cc([C@@H](C)C(=O)N2CC[C@H](Nc3ccc(-c4nc(C(C)(F)F)n(C)n4)c(C)n3)C2)c(Cl)cn1 (single isomer, unassigned) [Example 37A] | 150 |
| COc1cc([C@@H](C)C(=O)N2CC[C@H](Nc3ccc(-c4cn(C)c(C(F)F)n4)c(C)n3)C2)c(F)cn1 (single isomer, unassigned) [Example 38A] | 62 |
| Cc1nc(N[C@H]2CCN(C(=O)C(F)(F)c3ccc(Cl)cc3)C2)ccc1-c1cn(C)c(C(F)F)n1 [Example 23, 2-(4-chlorophenyl)-1-[(3S)-3-({5-[2-(difluoromethyl)-1-methyl-1H-imidazol-4-yl]-6-methylpyridin-2-yl}amino)pyrrolidin-1-yl]-2,2-difluoroethan-1-one] | 1.1 |
| COc1cc([C@@H](C)C(=O)N2CC[C@H](Nc3ccc(-c4nc(C(F)F)n(C)n4)c(C)n3)C2)nc(C)n1 (single isomer, unassigned) [Example 41A] | 240 |
| Cc1nc(N[C@H]2CCN(C(=O)Cc3ccc(F)cc3)C2)ccc1-c1nc2n(n1)CC(F)(F)CO2 [Example 29, 1-[(3S)-3-{[5-(6,6-difluoro-6,7-dihydro-5H-[1,2,4]triazolo[5,1-b][1,3]oxazin-2-yl)-6-methylpyridin-2-yl]amino}pyrrolidin-1-yl]-2-(4-fluorophenyl)ethan-1-one] | 6.9 |
| COc1cc([C@@H](C)C(=O)N2CC[C@H](Nc3ccc(-c4nc(C(F)F)n(C)n4)c(C)n3)C2)c(Cl)cn1 (single isomer, unassigned) [Example 24A] | 20 |
| COc1cc(CC(=O)N2CC[C@H](Nc3ccc(-c4cn(C)cn4)c(C)n3)C2)ccc1C [Example 31, 2-(3-methoxy-4-methylphenyl)-1-[(3S)-3-{[6-methyl-5-(1-methyl-1H-imidazol-4-yl)pyridin-2-yl]amino}pyrrolidin-1-yl]ethan-1-one] | 1 |
